From ChEMBL document CHEMBL1157988, “Loloatins A-D, cyclic decapeptide antibiotics produced in culture by a tropical marine bacterium” (1999)
In brackets after ≈: the same amount, converted by molar mass. Square brackets hold non-standard residues; d marks the D form. Peptide text beside a SMILES is read from it. Orn = NCCC[C@H](N)C(=O)O

Key:
Format in all cases: functional
Escherichia coli = experiment: Antimicrobial activity against Escherichia coli
Enterococcus faecium [1] = experiment: Antimicrobial activity against vancomycin-resistant Enterococcus faecium
[2] = system: Stenotrophomonas maltophilia; experiment: Antimicrobial activity against Xanthomonas maltophilia
Streptococcus pneumoniae [3] = experiment: Antimicrobial activity against Streptococcus pneumoniae
Enterococcus faecium [4] = experiment: Antimicrobial activity against Enterococcus faecium
Enterococcus faecalis [5] = experiment: Antimicrobial activity against Enterococcus faecalis
Enterococcus faecalis [6] = experiment: Antimicrobial activity against vancomycin-resistant Enterococcus faecalis
Streptococcus pneumoniae [7] = experiment: Antimicrobial activity against penicillin-resistant Streptococcus pneumoniae
Staphylococcus aureus [8] = experiment: Antimicrobial activity against methicillin-resistant Staphylococcus aureus
Pseudomonas aeruginosa = experiment: Antimicrobial activity against Pseudomonas aeruginosa
Staphylococcus aureus [9] = experiment: Antimicrobial activity against Staphylococcus aureus
Candida albicans = experiment: Antimicrobial activity against Candida albicans
Burkholderia cepacia = experiment: Antimicrobial activity against Pseudomonas cepacia

SMILES | MIC (Escherichia coli) | MIC (Enterococcus faecium [1]) | MIC [2] | MIC (Streptococcus pneumoniae [3]) | MIC (Enterococcus faecium [4]) | MIC (Enterococcus faecalis [5]) | MIC (Enterococcus faecalis [6]) | MIC (Streptococcus pneumoniae [7]) | MIC (Staphylococcus aureus [8]) | MIC (Pseudomonas aeruginosa) | MIC (Staphylococcus aureus [9]) | MIC (Candida albicans) | MIC (Burkholderia cepacia)
CC(C)C[C@@H]1NC(=O)[C@H](CCCN)NC(=O)[C@H](C(C)C)NC(=O)[C@H](Cc2c[nH]c3ccccc23)NC(=O)[C@H](CC(=O)O)NC(=O)[C@H](CC(N)=O)NC(=O)[C@@H](Cc2ccccc2)NC(=O)[C@H](Cc2ccccc2)NC(=O)[C@@H]2C[C@@H](O)CN2C(=O)[C@@H](Cc2ccc(O)cc2)NC1=O [LOLOATIN D] | > 32 µg/mL | 8 µg/mL (≈ 6.1 µM) | > 32 µg/mL | 4 µg/mL (≈ 3.05 µM) | 8 µg/mL (≈ 6.1 µM) | 8 µg/mL (≈ 6.1 µM) | 8 µg/mL (≈ 6.1 µM) | 4 µg/mL (≈ 3.05 µM) | 8 µg/mL (≈ 6.1 µM) | > 32 µg/mL | 8 µg/mL (≈ 6.1 µM) | 16 µg/mL (≈ 12.2 µM) | > 32 µg/mL
CC(C)C[C@@H]1NC(=O)[C@H](CCCN)NC(=O)[C@H](C(C)C)NC(=O)[C@H](Cc2c[nH]c3ccccc23)NC(=O)[C@H](CC(=O)O)NC(=O)[C@H](CC(N)=O)NC(=O)[C@@H](Cc2ccccc2)NC(=O)[C@H](Cc2c[nH]c3ccccc23)NC(=O)[C@@H]2CCCN2C(=O)[C@@H](Cc2ccc(O)cc2)NC1=O [LOLOATIN C] (cyclo(DWV[Orn]L[dY]PW[dF]N)) | 1 µg/mL (≈ 0.749 µM) | 2 µg/mL (≈ 1.5 µM) | > 32 µg/mL | < 0.25 µg/mL | 2 µg/mL (≈ 1.5 µM) | 1 µg/mL (≈ 0.749 µM) | 1 µg/mL (≈ 0.749 µM) | – | 0.5 µg/mL (≈ 0.374 µM) | > 32 µg/mL | 0.5 µg/mL (≈ 0.374 µM) | 8 µg/mL (≈ 5.99 µM) | > 32 µg/mL
CC(C)C[C@@H]1NC(=O)[C@H](CCCN)NC(=O)[C@H](C(C)C)NC(=O)[C@H](Cc2c[nH]c3ccccc23)NC(=O)[C@H](CC(=O)O)NC(=O)[C@H](CC(N)=O)NC(=O)[C@@H](Cc2ccccc2)NC(=O)[C@H](Cc2ccccc2)NC(=O)[C@@H]2CCCN2C(=O)[C@@H](Cc2ccc(O)cc2)NC1=O [LOLOATIN B] | > 32 µg/mL | 2 µg/mL (≈ 1.54 µM) | > 32 µg/mL | 1 µg/mL (≈ 0.771 µM) | 2 µg/mL (≈ 1.54 µM) | 2 µg/mL (≈ 1.54 µM) | 2 µg/mL (≈ 1.54 µM) | 1 µg/mL (≈ 0.771 µM) | 2 µg/mL (≈ 1.54 µM) | > 32 µg/mL | 2 µg/mL (≈ 1.54 µM) | 8 µg/mL (≈ 6.17 µM) | > 32 µg/mL
CC(C)C[C@@H]1NC(=O)[C@H](CCCN)NC(=O)[C@H](C(C)C)NC(=O)[C@H](Cc2ccc(O)cc2)NC(=O)[C@H](CC(=O)O)NC(=O)[C@H](CC(N)=O)NC(=O)[C@@H](Cc2ccccc2)NC(=O)[C@H](Cc2ccccc2)NC(=O)[C@@H]2CCCN2C(=O)[C@@H](Cc2ccc(O)cc2)NC1=O [LOLOATIN A] | > 32 µg/mL | 4 µg/mL (≈ 3.14 µM) | > 32 µg/mL | 1 µg/mL (≈ 0.785 µM) | 4 µg/mL (≈ 3.14 µM) | 4 µg/mL (≈ 3.14 µM) | 4 µg/mL (≈ 3.14 µM) | 2 µg/mL (≈ 1.57 µM) | 4 µg/mL (≈ 3.14 µM) | > 32 µg/mL | 4 µg/mL (≈ 3.14 µM) | 8 µg/mL (≈ 6.28 µM) | > 32 µg/mL
